Results published in US20260184663A1, “INDENE COMPOUNDS, PHARMACEUTICAL COMPOSITIONS THEREOF, AND THEIR THERAPEUTIC APPLICATIONS” (NucMito Pharmaceuticals co. Ltd., priority 2022, published 2026).

What was measured:
Assay type in all cases: cell-based
[1] = tested on: A549 (lung adenocarcinoma); assay: Antiproliferative activity (CCK-8 cell viability), A549; conditions: Homo sapiens, 72 h, read-out: Antiproliferative activity in cancerous cells, A549 (inhibition of cell growth); for inhibition at 3.3 µM: Compound concentration: 3.3 μM; for inhibition at 10 µM: Compound concentration: 10 μM
How it was run: (§1)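 Cells grown in DMEM (HepG2, SW480), MEM (HeLa) or F-12K (A549), each with 10% FBS, then exposed to compound at 3.3, 10 or 30 μM for 72 h at 37 °C. CCK-8 absorbance at 450 nm; viability expressed as percent of DMSO-treated cells, graded as growth inhibition bands.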

HepG2 (liver cancer) = assay: Antiproliferative activity (CCK-8 cell viability), HepG2; conditions: Homo sapiens, 72 h, read-out: Antiproliferative activity in cancerous cells, HepG2 (inhibition of cell growth); for inhibition at 3.3 µM: Compound concentration: 3.3 μM; for inhibition at 10 µM: Compound concentration: 10 μM
How it was run: as §1

[2] = tested on: B16F10 (malignant melanoma); assay: Antiproliferative activity (CCK-8 cell viability), B16F10; conditions: Mus musculus, 72 h, read-out: Antiproliferative activity in cancerous cells, B16F10 (inhibition of cell growth); for inhibition at 3.3 µM: B16-F10, Compound concentration: 3.3 μM; for inhibition at 10 µM: B16-F10, Compound concentration: 10 μM
How it was run: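 B16F10 melanoma cells grown in DMEM with 10% FBS were plated in 96-well plates at 2,000-5,000 cells/well. After attachment they were exposed to compound in medium for 72 h at 37° C. CCK-8 solution (10 μL) was then added, and after 4 h at 37° C absorbance was read at 450 nm.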

SW480 (colon cancer) = assay: Antiproliferative activity (CCK-8 cell viability), SW480; conditions: Homo sapiens, 72 h; for inhibition at 3.3 µM: Compound concentration: 3.3 μM; for inhibition at 3.3 µM / inhibition at 10 µM: read-out: Antiproliferative activity in cancerous cells, SW480 (inhibition of cell growth); for inhibition at 10 µM: Compound concentration: 10 μM
How it was run: as §1

HeLa (cervical cancer) = assay: Antiproliferative activity (CCK-8 cell viability), HeLa; conditions: Homo sapiens, 72 h, read-out: Antiproliferative activity in cancerous cells, HELA (inhibition of cell growth); for inhibition at 3.3 µM: Compound concentration: 3.3 μM; for inhibition at 10 µM: Compound concentration: 10 μM
How it was run: as §1

[3] = tested on: MDA-MB-231 (breast cancer); assay: Antiproliferative activity (CCK-8 cell viability), MDA-MB-231; conditions: Homo sapiens, 72 h; for inhibition at 3.3 µM: Compound concentration: 3.3 μM; for inhibition at 3.3 µM / inhibition at 10 µM: read-out: Antiproliferative activity in cancerous cells, MDA-MB-231 (inhibition of cell growth); for inhibition at 10 µM: Compound concentration: 10 μM; for inhibition at 30 µM: Compound concentration: 30 μM, read-out: Antiproliferative activity in cancerous cells, MDA-MB-231
How it was run: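 MDA-MB-231 breast cancer cells, grown in DMEM with 10% FBS, were plated in 96-well plates at 2,000-5,000 cells/well. Once attached, they were exposed to compound and incubated at 37° C. for 72 h. Viability was then measured with CCK-8 (10 μL per well, 4 h at 37° C.) by absorbance at 450 nm, relative to DMSO vehicle wells.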

[4] = tested on: A431 (epidermoid carcinoma); assay: Antiproliferative activity (CCK-8 cell viability), A431; conditions: Homo sapiens, 72 h; for inhibition at 3.3 µM: A-431, Compound concentration: 3.3 μM; for inhibition at 3.3 µM / inhibition at 10 µM: read-out: Antiproliferative activity in cancerous cells, A431 (inhibition of cell growth); for inhibition at 10 µM: A-431, Compound concentration: 10 μM
How it was run: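 A431 epidermoid carcinoma cells grown in DMEM with 10% FBS were plated at 2,000-5,000 cells/well in 96-well plates. After attachment they were exposed to compound at 3.3 μM, 10 μM, or 30 μM for 72 h at 37° C. Viability was then assessed by CCK-8 against DMSO vehicle-treated wells.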

SMILES	inhibition at 3.3 µM [1]	inhibition at 10 µM [1]	inhibition at 3.3 µM (HepG2 (liver cancer))	inhibition at 10 µM (HepG2 (liver cancer))	inhibition at 3.3 µM [2]	inhibition at 10 µM [2]	inhibition at 3.3 µM (SW480 (colon cancer))	inhibition at 10 µM (SW480 (colon cancer))	inhibition at 3.3 µM (HeLa (cervical cancer))	inhibition at 10 µM (HeLa (cervical cancer))	inhibition at 3.3 µM [3]	inhibition at 10 µM [3]	inhibition at 3.3 µM [4]	inhibition at 10 µM [4]	inhibition at 30 µM (SW480 (colon cancer); Compound concentration: 30 μM, read-out: Antiproliferative activity in cancerous cells, SW480)	inhibition at 30 µM [3]	inhibition at 30 µM ([4]; A-431, Compound concentration: 30 μM, read-out: Antiproliferative activity in cancerous cells, A431)
CCc1ccc(COCc2ccc(/C=C3/C(C)=C(CC(=O)O)c4cc(F)ccc43)cc2)cc1 [B151, (Z)-2-(1-(4-(((4-Ethylbenzyl)oxy)methyl)benzylidene)-5-fluoro-2-methyl-1H-inden-3-yl)acetic acid]	30 to 50%	≥ 50%	< 30%	≥ 50%	< 30%	< 30%	30 to 50%	≥ 50%	< 30%	≥ 50%	30 to 50%	≥ 50%	≥ 50%	≥ 50%			
CC1=C(CC(=O)O)c2cc(F)ccc2/C1=C\c1ccc(COCc2ccc(C(F)F)cc2)cc1 [B152, (Z)-2-(1-(4-(((4-(Difluoromethyl)benzyl)oxy)methyl)benzylidene)-5-fluoro-2-methyl-1H-inden-3-yl)acetic acid]	< 30%	≥ 50%	< 30%	≥ 50%	< 30%	≥ 50%	30 to 50%	≥ 50%	< 30%	≥ 50%	< 30%	≥ 50%	30 to 50%	≥ 50%			
CCc1ccc2c(c1)C(CC(=O)O)=C(C)/C2=C/c1ccc(CCc2ccccc2)cc1 [B157, (Z)-2-(5-Ethyl-2-methyl-1-(4-phenethylbenzylidene)-1H-inden-3-yl)acetic acid]	30 to 50%	≥ 50%	< 30%	≥ 50%	< 30%	≥ 50%	≥ 50%	≥ 50%	< 30%	≥ 50%	< 30%	< 30%	30 to 50%	≥ 50%			
CC1=C(CC(=O)O)c2cc(Cl)ccc2/C1=C\c1ccc(CCc2ccccc2)cc1 [B158, (Z)-2-(5-Chloro-2-methyl-1-(4-phenethylbenzylidene)-1H-inden-3-yl)acetic acid]	< 30%	< 30%	< 30%	≥ 50%	30 to 50%	≥ 50%	< 30%	< 30%	< 30%	≥ 50%	< 30%	< 30%	< 30%	< 30%	30 to 50%	30 to 50%	
CC1=C(CC(=O)O)c2cc(I)ccc2/C1=C\c1ccc(Oc2ccc(F)cc2)cc1 [C28, (Z)-2-(1-(4-(4-Fluorophenoxy)benzylidene)-5-iodo-2-methyl-1H-inden-3-yl)-acetic acid]	30 to 50%	≥ 50%	30 to 50%	≥ 50%	30 to 50%	≥ 50%	< 30%	≥ 50%	30 to 50%	≥ 50%	< 30%	≥ 50%	< 30%	≥ 50%			
CC1=C(CC(=O)O)c2cc(F)ccc2/C1=C\c1ccc(S(=O)(=O)c2ccc(F)cc2)cc1 [C40, (Z)-2-(5-Fluoro-1-(4-((4-fluorophenyl)sulfonyl)benzylidene)-2-methyl-1H-inden-3-yl)acetic acid]	< 30%	30 to 50%	< 30%	≥ 50%	< 30%	≥ 50%	< 30%	≥ 50%	< 30%	≥ 50%	30 to 50%	30 to 50%	30 to 50%	30 to 50%		30 to 50%	
COc1ccc(S(=O)(=O)c2ccc(/C=C3/C(C)=C(CC(=O)O)c4cc(F)ccc43)cc2)cc1 [C41, (Z)-2-(5-Fluoro-1-(4-((4-methoxyphenyl)sulfonyl)benzylidene)-2-methyl-1H-inden-3-yl)acetic acid]	< 30%	≥ 50%	< 30%	≥ 50%	30 to 50%	≥ 50%	< 30%	≥ 50%	< 30%	≥ 50%	≥ 50%	≥ 50%	30 to 50%	≥ 50%			
CC1=C(CC(=O)O)c2cc(F)ccc2/C1=C\c1cccc(Sc2ccc(F)cc2)c1 [C42, (Z)-2-(5-Fluoro-1-(3-((4-fluorophenyl)thio)benzylidene)-2-methyl-1H-inden-3-yl)acetic acid]	< 30%	≥ 50%	< 30%	≥ 50%	30 to 50%	≥ 50%	< 30%	≥ 50%	< 30%	≥ 50%	≥ 50%	≥ 50%	< 30%	≥ 50%			
CC1=C(CC(=O)O)c2cc(F)ccc2/C1=C\c1cccc([S+]([O-])c2ccc(F)cc2)c1 (stereo not drawn) [C43, (Z)-2-(5-Fluoro-1-(3-((4-fluorophenyl)sulfinyl)benzylidene)-2-methyl-1H-inden-3-yl)acetic acid]	< 30%	30 to 50%	< 30%	< 30%	< 30%	< 30%	< 30%	< 30%	< 30%	30 to 50%	30 to 50%	≥ 50%	30 to 50%	30 to 50%			30 to 50%
CC1=C(CC(=O)O)c2cc(F)ccc2/C1=C\c1cccc(S(=O)(=O)c2ccc(F)cc2)c1 [C44, (Z)-2-(5-Fluoro-1-(3-((4-fluorophenyl)sulfonyl)benzylidene)-2-methyl-1H-inden-3-yl)acetic acid]	< 30%	30 to 50%	< 30%	≥ 50%	< 30%	30 to 50%	< 30%	30 to 50%	< 30%	≥ 50%	≥ 50%	≥ 50%	≥ 50%	30 to 50%			
